Results reported in publication PMC8305389, “Tuning Photodynamic Properties of BODIPY Dyes, Porphyrins’ Little Sisters” (Molecules, 2021).
Marks after values point to notes of the source that are not given here. Blank lines part the entries; values can stand above or below the molecule they belong to.

What was measured:
SK-MEL-28 cells [1] = test: Dark toxicity (without irradiation), Neutral Red uptake; format: cell-based, human; details: 24 h in the dark, compounds precipitated over listed values
Method: (§1) The human cervical carcinoma (HeLa) and human melanoma (SK-MEL-28) cell lines were purchased from the American Type Cell Culture Collection (ATCC; Manassas, VA, USA). Both cell lines were cultured in Dulbecco’s modified Eagle’s medium (DMEM) without phenol red (Lonza, Verviers, Belgium) and supplemented with 10% heat-inactivated fetal bovine serum (Sigma-Aldrich (Merck, Darmstadt, Germany), 1% penicillin/streptomycin solution (Lonza), 10 mM HEPES buffer (Lonza), and 4 mM ultraglutamine I (alanyl-L-glutamine; Lonza). The cell lines were cultured in 75 cm^2 tissue culture flasks (TPP, Trasadingen, Switzerland) and maintained in a CO2 incubator at 37 °C in a humidified atmosphere of 5% CO2 and subcultured every 3−4 days. For the cytotoxicity experiments (phototoxicity and dark toxicity), cells were seeded into 96-well plates (TPP) at a density of 7.5 × 10^3 (HeLa and SK-MEL-28) cells per well for 24 h.
(§2) Stock solutions of the investigated compounds were prepared in DMSO at a concentration of 0.5 mM (4b) or 1 mM (all other compounds) and were sterilized by filtration through 0.22 μm syringe MCE filters. The stock solutions were diluted by the above-mentioned cell culture medium to the required concentrations. The maximum DMSO concentration in the medium in the experiments was 1% (2% in case of cpd. 4b). Cytoxicity of DMSO at corresponding concentrations (without studied compounds) was assessed in all cytotoxicity experiments as well—no toxicity against SK-MEL-28 or HeLa cells was observed.
To assess dark toxicities (inherent toxicities of the studied compounds without irradiation), SK-MEL-28 cells were treated with studied PSs for 24 h in the dark. Viability was evaluated after two washing steps using the Neutral Red (NR; Sigma-Aldrich (Merck, Darmstadt, Germany) uptake assay, based on the ability of the living cells to incorporate NR into their intact lysosomes (concentration of NR in cell culture medium was 30 μg/mL and incubation time with NR was 2 h). The absorbance of soluble NR in cell lysate was measured at λ = 540 nm using a Tecan Infinite 200 M plate reader (Tecan, Männedorf, Switzerland). The viability of each experimental group was expressed as the percentage of the untreated controls incubated under the same conditions (100%). After staining (before lysis), the cells were briefly investigated under the microscope to verify changes in cellular morphology and the presence of NR in lysosomes (orange-red spots in the cells). These observations were in agreement with NR measurements.
(§3) The concentrations of the studied compounds that induced a 50% decrease in cellular viability after treatment under the dark conditions (TC50, the median toxic concentration) or after the photodynamic treatment (EC50, the median effective concentration) were calculated using GraphPad Prism software (version 9.1.2; GraphPad Software, Inc., San Diego, CA, USA) for each independent experiment. The data are presented as the means ± standard deviations of these values.

[2] = system: human melanoma (SK-MEL-28) cells; test: Photodynamic activity (phototoxicity) after light activation, Neutral Red uptake; format: cell-based; details: for EC50: Homo sapiens, light or radiation study, 12 h incubation, λ > 455 nm, 15.3 mW cm−2, 15 min, 13.7 J cm−2
Method: as §1, §2
(§4) For the photodynamic activity assessment experiments (phototoxicity), both HeLa and SK-MEL-28 cells were incubated overnight (12 h) with the studied compounds. The cells were then carefully and swiftly washed twice with a prewarmed sterile phosphate-buffered saline, fresh cell culture medium was added, and cells were subsequently irradiated for 15 min using a 450 W ozone-free Xe lamp (Newport; intensity reduced to 400 W). The lamp was equipped with a long-pass filter (Newport 20CGA-455) and an 8-cm water filter to cut off undesirable wavelengths and heat radiation, respectively (λ > 455 nm, 15.3 mW cm^−2, 15 min, 13.7 J cm^−2). Cellular viability was measured after an additional 24 h by the above-mentioned NR uptake assay. At least four independent experiments, each in triplicate, were performed.
as §3

[3] = system: human cervical carcinoma (HeLa) cells; test: as above; format: cell-based; details: Homo sapiens, light or radiation study; HeLa; 12 h incubation; λ > 455 nm, 15.3 mW cm−2, 15 min, 13.7 J cm−2
Method: as §1, §2, §4, §3

[4] = Absorption and fluorescence measurements (quantum yield, lifetime); format: physicochemical; details: MeOH; for extinction coefficient (log ε): at λmax; for fluorescence quantum yield, absolute method (ΦF(absol)): integrating sphere; for fluorescence quantum yield, relative method (ΦF(relat)): rhodamin-G6 as reference; for fluorescence lifetime (τF): λexc = 506.1 nm
Method: The singlet oxygen quantum yields (ΦΔ) and the fluorescence quantum yields (ΦF) of tested samples in MeOH were determined using published comparative (relative) methods with rhodamin-G6 used as a reference for fluorescence (ΦF = 0.94 in EtOH [31]), and bengal rose as a reference for singlet oxygen determinations (ΦΔ = 0.76 in MeOH [32]). Singlet oxygen measurements were performed with 1,3-diphenylisobenzofuran as the chemical scavenger of singlet oxygen by monitoring its decomposition at 417 nm. The ΦF values were also determined by an absolute method using an integrating sphere in an FLS1000 fluorimeter (Edinburgh Instruments, Edinburgh, UK). Fluorescence lifetimes were measured on the same fluorimeter upon excitation by HPL510 laser (Edinburgh Instruments, λ = 506.1 nm).

HeLa cells [5] = system: HeLa cells; set-up: method as in PMID 27682881; details: on HeLa cells; cited from earlier work
HeLa cells [6] = system: HeLa cells; set-up: method as in PMID 27682881; details: cited from earlier work; for EC50: HeLa, λ > 570 nm, 12.4 mW cm−2, 15 min, 11.2 J cm−2, read-out: EC50, photodynamic activity; for TC50/EC50, phototherapeutic index: on HeLa cells
SK-MEL-28 cells [7] = test: RealTime-Glo Annexin V Apoptosis and Necrosis Assay (cell death determination); format: cell-based, human; details: TRAIL 400 ng/mL, paclitaxel 1 μM, digitonin 25 μg/mL
Source text: A RealTime-Glo™ Annexin V Apoptosis and Necrosis Assay (Promega, Madison, WI, USA) was utilized for the real-time assessment of cell death. This monitors phosphatidylserine exposure on the outer leaflet of the cytoplasmic membrane (increase in luminescence signal) together with binding of the membrane-impermeable probe to DNA (increase in fluorescence signal) that accompanies a loss of membrane integrity, typical for late stages of apoptosis (secondary necrosis) or necrotic type of cell death. According to the manufacturer, this assay uses Annexin V fusion proteins containing complementary subunits of luciferase (Annexin V-LgBiT and Annexin V-SmBiT). The luminescence signal is low until both subunits bind to phosphatidylserine, and in close vicinity form functional luciferase.
For this assay, SK-MEL-28 cells were seeded onto 96-well white clear-bottom plates (Corning, New York, NY, USA) in a 1:1 mixture of DMEM and CO2 independent medium (Gibco; supplemented with 10% FBS, 1% penicillin/streptomycin solution and 4 mM ultraglutamine I). The next day, the medium was replaced with a fresh CO2 independent medium, and cells were incubated overnight. The next day, studied PSs dissolved in a CO2 independent medium in concentrations corresponding to their EC85 were added as described above. […] After mixing, samples were placed into a plate reader with a temperature control (Tecan Spark, Männedorf, Switzerland) and measured each 15 min for 24 h—luminescence (200 ms integration time) and fluorescence (λexc = 485 nm; λemi = 530 nm, BPexc/emi = 20 nm; 10 flashes per well, 40 μs integration time).
Digitonin (25 μg/mL), TRAIL (400 ng/mL), and paclitaxel (1 μM) were used as positive controls for membrane-disturbing-agent induced necrosis, extrinsic-pathway-mediated apoptosis, and intrinsic-pathway-mediated apoptosis, respectively. Cell-free wells (no-cell controls) were used to subtract background luminescence and fluorescence for each time point. […]

absorption maximum (λmax) [4]: 498 nm | emission maximum (λF) [4]: 507 nm | extinction coefficient (log ε) [4]: 4.90 | fluorescence quantum yield, absolute method (ΦF(absol)) [4]: 0.43 | fluorescence quantum yield, relative method (ΦF(relat)) [4]: 0.44 | fluorescence lifetime (τF) [4]: 3.25 ns
Molecule: CC1=CC(C)=[N+]2C1=C(c1ccc(OCCCCCN)cc1)c1c(C)cc(C)n1[B-]2(F)F [5a, 1,3,5,7-Tetramethyl-8-[4-(5-aminopentyloxy)phenyl]-4,4-difluoro-4-bora-3a,4a-diaza-s-indacene]
TC50, dark toxicity (SK-MEL-28 cells [1]): >10 ^b μM | TC50/EC50, phototherapeutic index [2]: >2.78 | EC50 [2]: 3.6 ± 0.66 µM | EC50 [3]: 9.4 ± 0.7 µM

absorption maximum (λmax) [4]: 498 nm | emission maximum (λF) [4]: 507 nm | extinction coefficient (log ε) [4]: 4.00 | fluorescence quantum yield, absolute method (ΦF(absol)) [4]: 0.50 | fluorescence quantum yield, relative method (ΦF(relat)) [4]: 0.47 | fluorescence lifetime (τF) [4]: 3.22 ns
Molecule: CC1=CC(C)=[N+]2C1=C(c1ccc(OCCCCCCCCN)cc1)c1c(C)cc(C)n1[B-]2(F)F [5b, 1,3,5,7-Tetramethyl-8-[4-(8-aminooctyloxy)phenyl]-4,4-difluoro-4-bora-3a,4a-diaza-s-indacene]
TC50, dark toxicity (SK-MEL-28 cells [1]): >10 ^b μM | TC50/EC50, phototherapeutic index [2]: >4.13 | EC50 [2]: 2.42 ± 0.46 µM | EC50 [3]: 1.57 ± 0.33 µM

Molecule: CN(C)c1ccc2nc3ccc(=[N+](C)C)cc-3sc2c1 [Methylene blue]
TC50, dark toxicity (HeLa cells [5]): 22.7 ± 7.9 ^d μM | EC50 (HeLa cells [6]): 5.15 ± 1.93 µM | TC50/EC50, phototherapeutic index (HeLa cells [6]): 4.4 ^d

Molecule: C=CC1=C(C)c2cc3[nH]c(cc4nc(cc5[nH]c(cc1n2)c(C)c5CCC(=O)O)C(CCC(=O)O)=C4C)c(C)c3C=C [Pp IX, protoporphyrin IX]
TC50, dark toxicity (HeLa cells [5]): >10 ^b,d μM | EC50 (HeLa cells [6]): 0.8 ± 0.13 µM | TC50/EC50, phototherapeutic index (HeLa cells [6]): >10 ^d

Molecule: C[C@@H]1CC[C@@]2(OC1)O[C@H]1[C@@H](O)[C@H]3[C@@H]4CC[C@H]5C[C@@H](O[C@@H]6O[C@H](CO)[C@H](O[C@@H]7O[C@H](CO)[C@@H](O)[C@H](O[C@@H]8OC[C@@H](O)[C@H](O)[C@H]8O)[C@H]7O[C@@H]7O[C@H](CO)[C@H](O)[C@H](O[C@@H]8O[C@H](CO)[C@@H](O)[C@H](O)[C@H]8O)[C@H]7O)[C@H](O)[C@H]6O)[C@H](O)C[C@]5(C)[C@H]4CC[C@]3(C)[C@H]1[C@@H]2C [digitonin]
delay between luminescence (Annexin V) and fluorescence (DNA probe) signal surge, positive controls (SK-MEL-28 cells [7]): simultaneous and immediate rise in luminescence and fluorescence

Molecule: CC(=O)O[C@H]1C(=O)[C@@]2(C)[C@H]([C@H](OC(=O)c3ccccc3)[C@]3(O)C[C@H](OC(=O)[C@H](O)[C@@H](NC(=O)c4ccccc4)c4ccccc4)C(C)=C1C3(C)C)[C@]1(OC(C)=O)CO[C@@H]1C[C@@H]2O [paclitaxel]
delay between luminescence (Annexin V) and fluorescence (DNA probe) signal surge, positive controls (SK-MEL-28 cells [7]): ~11.5 h

Molecule: Oc1cccc(-c2c3nc(c(-c4cccc(O)c4)c4ccc([nH]4)c(-c4cccc(O)c4)c4nc(c(-c5cccc(O)c5)c5ccc2[nH]5)CC4)C=C3)c1 [temoporfin]
TC50, dark toxicity (HeLa cells [5]): 20.6 ± 2.5 ^d μM | EC50 (HeLa cells [6]): 0.045 ± 0.007 µM | TC50/EC50, phototherapeutic index (HeLa cells [6]): 460 ^d

B1: TRAIL: inducer of extrinsic-pathway apoptosis, positive control (protein, UniProt P50591 1-281, looked up)
Tumor necrosis factor ligand …: MAMMEVQGGPSLGQTCVLIVIFTVLLQSLCVAVTYVYFTNELKQMQDKYSKSGIACFLKEDDSYWDPNDEESMNSPCWQVKWQLRQLVRKMILRTSEETISTVQEKQQNISPLVRERGPQRVAAHITGTRGRSNTLSSPNSKNEKALGRKINSWESSRSGHSFLSNLHLRNGELVIHEKGFYYIYSQTYFRFQEEIKENTKNDKQMVQYIYKYTSYPDPILLMKSARNSCWSKDAEYGLYSIYQGGIFELKENDRIFVSVTNEHLIDMDHEASFFGAFLVG
delay between luminescence (Annexin V) and fluorescence (DNA probe) signal surge, positive controls (SK-MEL-28 cells [7]): approximately 3.5 h
